Data as given in ChEMBL document CHEMBL4376804, “Review of Transient Receptor Potential Canonical (TRPC5) Channel Modulators and Diseases” (J Med Chem, 2019).

What was measured:
Type in all cases: cell-based
[1] = biological target: T1, Short transient receptor potential channel 5 (Mus musculus, UniProt Q9QX29); assay: Inhibition of mouse TRPC5 expressed in HEK293 cells co-expressing mu-opioid receptor assessed as reduction in DAMGO-induced membrane potential by FMP-2 dye based assay
T1 sequence (Q9QX29 whole entry): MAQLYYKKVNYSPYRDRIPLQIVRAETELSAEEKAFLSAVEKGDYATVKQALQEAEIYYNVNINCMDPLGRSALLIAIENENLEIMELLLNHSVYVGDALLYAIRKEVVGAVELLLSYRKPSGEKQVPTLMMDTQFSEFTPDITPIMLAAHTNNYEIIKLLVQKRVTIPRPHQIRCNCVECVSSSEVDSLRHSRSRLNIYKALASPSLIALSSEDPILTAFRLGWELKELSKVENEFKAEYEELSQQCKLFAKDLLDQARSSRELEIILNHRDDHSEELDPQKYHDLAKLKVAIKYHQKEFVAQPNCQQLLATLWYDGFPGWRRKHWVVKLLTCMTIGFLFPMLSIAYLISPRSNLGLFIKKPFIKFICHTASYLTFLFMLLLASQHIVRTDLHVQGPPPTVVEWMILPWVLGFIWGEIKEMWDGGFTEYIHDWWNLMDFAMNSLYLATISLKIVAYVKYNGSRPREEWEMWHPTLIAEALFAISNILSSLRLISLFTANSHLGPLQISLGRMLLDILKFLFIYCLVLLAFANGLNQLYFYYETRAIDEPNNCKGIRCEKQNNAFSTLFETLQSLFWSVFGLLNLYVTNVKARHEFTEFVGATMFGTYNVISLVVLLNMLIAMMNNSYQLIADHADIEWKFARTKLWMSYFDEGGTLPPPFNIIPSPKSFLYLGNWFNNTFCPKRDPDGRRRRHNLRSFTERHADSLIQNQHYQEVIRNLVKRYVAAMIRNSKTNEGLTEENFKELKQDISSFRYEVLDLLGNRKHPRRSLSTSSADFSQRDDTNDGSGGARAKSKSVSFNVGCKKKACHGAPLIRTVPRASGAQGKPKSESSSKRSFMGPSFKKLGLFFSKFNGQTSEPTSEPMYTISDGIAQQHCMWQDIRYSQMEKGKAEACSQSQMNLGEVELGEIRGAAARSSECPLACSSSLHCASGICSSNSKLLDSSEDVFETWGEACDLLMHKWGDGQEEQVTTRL

[2] = species on record: Mus musculus; assay: Selectivity ratio of IC50 for YFP-tagged mouse TRPC7 expressed in thapsigargin treated HEK293 cells to IC50 for mouse TRPC5 expressed in thapsigargin treated HEK293/TREx cells
[3] = biological target: T2, Short transient receptor potential channel 3 (Homo sapiens, UniProt Q13507); assay: Inhibition of YFP-tagged human TRPC3 expressed in thapsigargin treated HEK293 cells assessed as reduction in amix-induced calcium level by fluo-4 dye based fluorescence assay
T2 sequence (Q13507 whole entry): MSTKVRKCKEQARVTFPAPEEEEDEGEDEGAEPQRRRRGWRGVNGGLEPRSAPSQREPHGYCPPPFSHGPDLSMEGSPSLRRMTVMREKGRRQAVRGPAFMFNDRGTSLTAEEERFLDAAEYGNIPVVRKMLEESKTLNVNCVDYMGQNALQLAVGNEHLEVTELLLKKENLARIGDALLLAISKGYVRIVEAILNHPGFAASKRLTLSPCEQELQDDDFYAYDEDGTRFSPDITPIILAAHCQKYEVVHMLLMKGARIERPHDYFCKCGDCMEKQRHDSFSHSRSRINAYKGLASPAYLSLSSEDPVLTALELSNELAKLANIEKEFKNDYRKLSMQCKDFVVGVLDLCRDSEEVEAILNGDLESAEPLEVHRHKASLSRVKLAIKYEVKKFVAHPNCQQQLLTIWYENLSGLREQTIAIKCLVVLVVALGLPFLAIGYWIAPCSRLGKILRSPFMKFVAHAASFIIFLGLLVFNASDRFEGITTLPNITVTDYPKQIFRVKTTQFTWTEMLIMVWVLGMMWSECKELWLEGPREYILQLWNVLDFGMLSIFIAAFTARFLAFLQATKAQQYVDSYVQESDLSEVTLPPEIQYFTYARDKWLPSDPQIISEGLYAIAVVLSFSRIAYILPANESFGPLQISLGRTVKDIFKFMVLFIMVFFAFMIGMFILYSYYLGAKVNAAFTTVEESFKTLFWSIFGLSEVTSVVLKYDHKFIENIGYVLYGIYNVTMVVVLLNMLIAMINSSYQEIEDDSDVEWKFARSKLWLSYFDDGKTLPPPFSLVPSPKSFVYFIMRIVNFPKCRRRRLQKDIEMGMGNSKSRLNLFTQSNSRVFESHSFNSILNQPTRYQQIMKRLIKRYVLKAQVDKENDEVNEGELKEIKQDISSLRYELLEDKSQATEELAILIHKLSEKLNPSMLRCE

[4] = Selectivity ratio of IC50 for YFP-tagged human TRPC6 expressed in thapsigargin treated HEK293 cells to IC50 for mouse TRPC5 expressed in thapsigargin treated HEK293/TREx cells

| SMILES | IC50 [1] [µM] | also measured |
| --- | --- | --- |
| c1ccc2[nH]c(N3CCCC3)nc2c1 | 8 | – |
| c1ccc2[nH]c(NC34CC5CC(CC(C5)C3)C4)nc2c1 | 12.4 | – |
| Clc1ccc(Cn2c(CN3CCCC3)nc3ccccc32)cc1 [CLEMIZOLE] | – | Ratio IC50 [2]: 10; IC50 [3]: 9.1 µM; Ratio IC50 [4]: 10 |
| CC1CCCCN1c1nc2ccccc2[nH]1 (centres undefined) | 3.5 | – |
| CC1CCN(c2nc3cc(Cl)ccc3[nH]2)CC1 | 3.1 | – |
| c1ccc2[nH]c(N3CCCCC3)nc2c1 | 11.1 | – |
| CC1CCN(c2nc3ccccc3[nH]2)CC1 | 6.6 | – |
